Results from patent US20200278355A1, “CONJUGATED PROTEINS AND USES THEREOF” (THE SCRIPPS RESEARCH INSTITUTE, priority 2017, published 2020).

What was measured:
FLAG-NR0B1-C274V = molecular target: T1, FLAG-NR0B1-C274V (Homo sapiens, UniProt P51843, C274V); assay: Gel-based BPK-29yne labeling of the NR0B1-C274V mutant in HEK293T cells; assay type: cell-based; settings: 30 min, in-gel fluorescence
T1 construct: expressed in transfected cells; host or cells: HEK-293T, transient, pRK5-based vector
Method: (§1) 4×10^6 HEK-293T cells were seeded in poly-L-lysine coated 10 cm plates and transfected the next day with 5 μg of FLAG-NR0B1, FLAG-NR0B1-C274V, or FLAG-METAP2 cDNA in a pRK5-based expression vector. 48 h after transfection, cells were treated with indicated concentrations of BPK-29 or control compound BPK-27 for 3 h at 37° C. in DMEM containing 10% FBS and supplements as described in Cell Culture. BPK-29yne (5 μM) was then added and incubated for an additional 30 min at 37° C. FLAG immunoprecipitates were prepared as described above and following washes, the FLAG resin was resuspended in PBS (100 μL). To each sample, 12 μL of a freshly prepared “click” reagent mixture was added to conjugate the fluorophore to probe-labeled proteins. […] Samples were boiled for 5 min and proteins were resolved by SDS-PAGE (10% acrylamide), and visualized by in-gel fluorescence on a Bio-Rad ChemiDoc MP flatbed fluorescence scanner. Samples were also analyzed by immunoblotting. Recombinantly expressed FLAG-tagged protein levels were determined with the FLAG antibody (Sigma). Gel fluorescence and imaging was processed using Image Lab (v 5.2.1) software.

FLAG-NR0B1 (WT) = molecular target: T2, FLAG-NR0B1 (WT) (Homo sapiens, UniProt P51843); assay: Gel-based BPK-29yne labeling of NR0B1 and competition in HEK293T cells; assay type: cell-based; settings: 30 min, in-gel fluorescence
T2 construct: expressed in transfected cells; host or cells: HEK-293T, transient, pRK5-based vector
T2 sequence (P51843 whole entry): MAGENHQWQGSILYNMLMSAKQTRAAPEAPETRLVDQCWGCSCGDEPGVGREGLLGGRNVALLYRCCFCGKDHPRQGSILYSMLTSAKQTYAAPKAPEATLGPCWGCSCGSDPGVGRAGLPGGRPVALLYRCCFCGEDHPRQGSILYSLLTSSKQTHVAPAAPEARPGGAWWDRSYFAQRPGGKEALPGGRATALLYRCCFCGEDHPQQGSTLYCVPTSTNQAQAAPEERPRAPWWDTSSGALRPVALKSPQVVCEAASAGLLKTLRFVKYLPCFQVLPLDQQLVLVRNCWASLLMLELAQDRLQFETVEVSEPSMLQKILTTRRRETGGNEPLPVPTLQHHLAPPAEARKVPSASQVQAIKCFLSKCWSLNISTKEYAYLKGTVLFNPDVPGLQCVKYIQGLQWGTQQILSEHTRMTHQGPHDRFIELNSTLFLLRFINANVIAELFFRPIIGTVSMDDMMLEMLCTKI
Method: as §1

T1 sequence (P51843 whole entry C274V): as the sequence (P51843 whole entry) above, with C274V counted along it

Q: For `C#Cc1cccc(CN(C(=O)CCl)C2CCCN(C(=O)c3ccc(N4CCOCC4)cc3)CC2)c1` (centres unmarked) [BPK-29yne, 2-chloro-N-(3-ethynylbenzyl)-N-(1-(4-morpholinobenzoyl)azepan-4-yl)acetamide], which “BPK-29yne labeling of NR0B1 C274V mutant” value (FLAG-NR0B1-C274V) is on record?
A: Its value is “but not a C274V mutant”.

Q: And the “BPK-29yne labeling of WT-NR0B1” value (FLAG-NR0B1 (WT))?
A: The value was “labeled WT-NR0B1”.
